Measured values taken from patent US8741339B2, “Active targeting polymer micelle encapsulating drug, and pharmaceutical composition” (Nonocarrier Co., Ltd., priority 2008, dated 2014).
Values after ≈ are worked out from the molar mass of the structure shown.

Experiments:
Assay type in all cases: cell-based
[1] = tested on: human liver cancer HepG2 cell; assay: Cytotoxicity test 4 (WST method, 8 hours with sample liquid); details: total cultivation 72 hours, as CPT concentration
[2] = tested on: human breast cancer MDA-MB-231 cell; assay: Cytotoxicity test 5 (WST method, 8 hours with sample liquid); details: MDA-MB-231, human breast cancer, total cultivation 72 hours, as CPT concentration
Protocol: The human breast cancer MDA-MB-231 cell, which had been suspended in 90 μIL of a medium, was seeded to a 96-well plate so that the cell would be contained at a concentration of about 5000 cells per well, and cultivated under an atmosphere of 37° C. and 5% CO2 overnight. The medium was formed of RPMI1640 (Gibco™, Invitrogen) and 10% Fetal Bovine Serum (FBS, biowest). Subsequently, each of sample liquids at various DTX concentrations obtained by diluting the micelle solution in Example 2 and the micelle solution in Comparative Example 1 with the medium was added to each well (10 μL per well), […] […] From each well, the absorbance (Abs450) of light at a wavelength of 450 nm was measured, and the cell growth rate (% cell growth) was calculated based on the below-indicated mathematical equation. It should be noted that “Abs450 value of control” in the mathematical equation means an absorbance obtained from a well in which the above-mentioned cultivation has been performed using a culture liquid free of DTX. % cell growth=[(Abs450 value after addition of sample liquid)−(Abs450 value of blank)]/[(Abs450 value of control)−(Abs450 value of blank)]×100 […]

[3] = tested on: human prostate cancer DU145 cell; assay: Cytotoxicity test 3 (WST method, 8 hours with sample liquid); details: DU-145, total cultivation 72 hours, as CPT concentration

CC[C@@]1(O)C(=O)OCc2c1cc1n(c2=O)Cc2cc3ccccc3nc2-1 [Solution, camptothecin]
GI50 [1]: 0.04 µg/mL (≈ 0.115 µM)
GI50 [2]: 1 µg/mL (≈ 2.87 µM)
GI50 [3]: 0.01 µg/mL (≈ 0.0287 µM)
